Our source for the IC50 and Ratio values is ChEMBL document CHEMBL1124100, “Structure-activity profile of a series of novel triazoloquinazoline adenosine antagonists” (J Med Chem, 1988).

For experiment [1], the species on record is Cavia porcellus. Briefly: Inhibition of 2-chloroadenosine-induced relaxation in histamine-contracted guinea pig trachea. In kind it is functional, organism-based.
For experiment [2], the target named is Adenosine A2 receptor (Rattus norvegicus, UniProt P29276+P30543).
Description: Inhibition of binding to Adenosine-2 receptor using [3H]NECA in rat striatum
Experiment [3] deals with T1, Adenosine receptor A1 (Rattus norvegicus, UniProt P25099).
T1 sequence (P25099 whole entry): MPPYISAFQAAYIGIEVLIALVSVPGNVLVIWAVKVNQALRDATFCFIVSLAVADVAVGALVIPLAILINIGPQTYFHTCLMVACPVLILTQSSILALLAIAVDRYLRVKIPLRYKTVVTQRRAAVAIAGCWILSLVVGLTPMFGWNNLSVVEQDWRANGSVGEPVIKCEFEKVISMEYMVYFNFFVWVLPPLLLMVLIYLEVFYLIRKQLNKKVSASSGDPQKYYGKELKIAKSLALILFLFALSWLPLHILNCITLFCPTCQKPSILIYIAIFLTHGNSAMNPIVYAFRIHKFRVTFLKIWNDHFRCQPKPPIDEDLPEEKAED
Briefly: Inhibition of binding towards adenosine A1 receptor using [3H]N-cyclohexyladenosine ([3H]CHA) in rat whole brain membranes. The format is cell membranes.

The species named for experiment [4] is Cavia porcellus. Briefly: In vitro inhibition of adenylate cyclase activity of synaptoneurosomes from guinea pig cerebral cortex. The format is functional.
Experiment [5] concerns the target T2, Adenosine receptor A1 (Rattus norvegicus) (UniProt P25099).
T2 sequence (whole entry): T1 sequence (P25099 whole entry)
Briefly: (§1) Ratio of Ki at A2 to Ki at A1 receptors.

Experiment [6] can be described thus: as §1.

As to `Oc1nc2ccc(Cl)cc2c2nc(-c3ccco3)nn12`, the half-maximal inhibitory concentration (IC50) (usually the concentration at which inhibition is half-maximal) in experiment [1] is greater than 1000 nM; in experiment [2] it was greater than 10000 nM; in experiment [3], 10000 nM.
For `Nc1nc2ccc(Cl)cc2c2nc(C3CCCO3)nn12` (stereo unspecified), the IC50 is greater than 1000 nM in experiment [1], 1580 nM in experiment [2], 480 nM in experiment [4] and 827 nM in experiment [3]. Moreover, the Ratio in experiment [5] was found to be 1.9.
In the same order, the values of `CS(=O)(=O)O.Nc1nc2ccc(Cl)cc2c2nc(-c3cccs3)nn12` are greater than 1000 nM, 116 nM, 200 nM, 324 nM and 0.36.
Take `Cn1c(=O)c2nc[nH]c2n(C)c1=O` [THEOPHYLLINE]: the IC50 in experiment [1] is 3000 nM; in experiment [4] it was 10000 nM.
As to `OCCNc1nc2ccc(Cl)cc2c2nc(-c3ccco3)nn12`, the IC50 in experiment [1] is greater than 1000 nM; in experiment [2], 56 nM; in experiment [3] it was 21 nM. The Ratio in experiment [5] was determined as 2.7.
In the same order, the values of `CCC(C)Nc1nc2ccc(Cl)cc2c2nc(-c3ccco3)nn12.CS(=O)(=O)O` (stereo unspecified) are greater than 1000 nM, 158 nM, 61 nM and 2.6.
Regarding `Nc1nc2ccc(OCc3ccccc3)cc2c2nc(-c3ccco3)nn12`, the half-maximal inhibitory concentration (IC50) is greater than 10000 nM in experiment [1], 1290 nM in experiment [2] and 145 nM in experiment [3]. Also, the Ratio in experiment [5] was 8.9.
In the case of `CS(=O)(=O)O.Cn1c(=N)n2nc(-c3ccco3)nc2c2ccccc21`, the IC50 in experiment [1] was greater than 1000 nM; in experiment [2] it was 2914 nM; in experiment [4] it was 1480 nM; in experiment [3] it was 1220 nM. For the same molecule, the Ratio in experiment [5] worked out at 2.4.
Turning to `CS(=O)(=O)O.Nc1nc2ccc(Cl)cc2c2nc(-c3ccco3)nn12`, the IC50 in experiment [1] worked out at 3 nM; in experiment [2], 3.3 nM.
Consider `CN(C)c1nc2ccc(Cl)cc2c2nc(-c3ccco3)nn12`, for which the half-inhibitory concentration (IC50) in experiment [1] was greater than 1000 nM; in experiment [2] it was greater than 10000 nM; in experiment [4], greater than 1000 nM; in experiment [3], greater than 10000 nM.
Turning to `CS(=O)(=O)O.Nc1nc2ccc(Cl)cc2c2nc(-c3ccc[nH]3)nn12`, the half-inhibitory concentration (IC50) was greater than 1000 nM in experiment [1], 1205 nM in experiment [2] and 610 nM in experiment [3]. Further, in experiment [5], the Ratio was found to be 2.
Turning to `CC(C)(C)Nc1nc2ccc(Cl)cc2c2nc(-c3ccco3)nn12`, the IC50 in experiment [1] is greater than 1000 nM; in experiment [2], greater than 10000 nM; in experiment [3] it was greater than 10000 nM.
For the molecule `Nc1nc2ccc(Cl)cc2c2nc(-c3ccc(Br)o3)nn12`, the concentration for half-maximal inhibition (IC50) was greater than 1000 nM in experiment [1], 531 nM in experiment [2] and 1570 nM in experiment [3]. The Ratio in experiment [5] is 0.34.
With `COc1ccc2nc(N)n3nc(-c4ccco4)nc3c2c1`, the IC50 in experiment [1] was greater than 10000 nM; in experiment [2], 19 nM; in experiment [3], 31 nM. In addition, the Ratio in experiment [5] came to 0.61.
For `CC(C)Nc1nc2ccc(Cl)cc2c2nc(-c3ccco3)nn12`, the IC50 in experiment [1] is greater than 1000 nM; in experiment [2], 179 nM; in experiment [4], 400 nM; in experiment [3] it was 22 nM. Besides, the Ratio in experiment [5] was found to be 8.2.
As to `CNc1nc2ccc(Cl)cc2c2nc(-c3ccco3)nn12`, the half-inhibitory concentration (IC50) is greater than 1000 nM in experiment [1], 61 nM in experiment [2] and 89 nM in experiment [3]. Besides, in experiment [5], the Ratio turned out to be 0.69.
Take `CS(=O)(=O)O.Nc1nc2ccc(Cl)cc2c2nc(-c3ccoc3)nn12`: the half-maximal inhibitory concentration (IC50) in experiment [1] was greater than 1000 nM; in experiment [2] it was 145 nM; in experiment [4] it was 79 nM; in experiment [3], 295 nM. For the same molecule, the Ratio in experiment [6] was found to be 0.49.
For `Nc1nc2ccccc2c2nc(-c3ccco3)nn12`, the IC50 was 100 nM in experiment [1], 27 nM in experiment [2], 40 nM in experiment [4] and 38 nM in experiment [3]. Also, the Ratio in experiment [5] worked out at 0.71.
With `Nc1nc2ccc(O)cc2c2nc(-c3ccco3)nn12`, the IC50 in experiment [1] is 1000 nM; in experiment [2], 5.5 nM; in experiment [3] it was 9.5 nM. The Ratio in experiment [5] was determined as 0.58.
